Assays:
Gli-Luc/MEF cells (Smo) = experiment: Gli-Luc/MEF assay (Shh-stimulated luciferase reporter under the Gli response element); format: cell-based, mouse; conditions: Mus musculus, MEF, 48 h
Experimental: The Gli-Luc/MEF cells obtained from Gli-Luc transgenic mice (Pfizer CoE, Genetically Modified Mice) contain a luciferase reporter gene under the control of the Gli response element. Luciferase activity stimulated with Sonic hedgehog ligand was inhibited by Smo inhibitors, and IC50 was subsequently calculated.
Plates were incubated at 37° C. and 5% CO2 overnight. On day two, cells were dosed with test compounds at a final concentration ranging from […] to 50 μM at a 3-time series dilution. Immediately after dosing cells with compounds, recombinant mouse sonic hedgehog (Shh, R&D Systems 464-SH) was added to a final concentration of 2 μg/mL. The cells were incubated with compounds and Shh for 48 hours at 37° C. and 5% CO2. Luciferase assays were conducted on Day 4 using the Bright-Glo Luciferase assay system (Promega E2620) according to Promega's protocol. Briefly, Bright-Glo luciferase reagent was made up and 25 uL were added to each well of the 384-well plate containing media. Plates were kept at room temperature for 5 minutes, and then read on an Envision Luminescence plate reader (Perkin-Elmer). IC50 of the inhibition was calculated by using GraphPad Prism.

[1] = biological target: T1, human Smo (amino acids 181-787) (Homo sapiens, UniProt Q99835); experiment: Smo radioligand competition binding assay (displacement of 3H-PF-03451358 from HEK293 membranes); conditions: for inhibition at 0.05 µM: 0.05 μM test compound, displacement of 3H-PF-03451358, read-out: SMO % inh. @ 0.05 μM; for IC50: radioligand competition binding
T1 construct: expressed in transfected cells; membrane preparation
T1 sequence (Q99835 181-787): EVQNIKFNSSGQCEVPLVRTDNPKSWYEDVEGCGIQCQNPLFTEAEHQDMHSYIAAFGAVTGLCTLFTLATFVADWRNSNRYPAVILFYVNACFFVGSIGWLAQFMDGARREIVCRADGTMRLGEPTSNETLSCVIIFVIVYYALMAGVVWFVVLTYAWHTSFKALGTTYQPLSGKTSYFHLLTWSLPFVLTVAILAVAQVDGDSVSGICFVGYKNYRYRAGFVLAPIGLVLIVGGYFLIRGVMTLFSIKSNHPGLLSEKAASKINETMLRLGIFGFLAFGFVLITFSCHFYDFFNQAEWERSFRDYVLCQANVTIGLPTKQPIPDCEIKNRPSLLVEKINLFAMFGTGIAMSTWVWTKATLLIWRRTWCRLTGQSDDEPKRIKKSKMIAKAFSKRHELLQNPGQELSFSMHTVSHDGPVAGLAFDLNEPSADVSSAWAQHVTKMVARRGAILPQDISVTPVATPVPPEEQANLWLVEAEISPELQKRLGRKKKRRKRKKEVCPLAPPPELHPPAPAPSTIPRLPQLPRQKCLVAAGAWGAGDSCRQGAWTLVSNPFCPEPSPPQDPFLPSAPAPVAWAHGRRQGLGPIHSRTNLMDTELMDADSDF
Experimental: Membranes were prepared from a stable cell line created in HEK293FlpIn-TetR cells (Invitrogen) using FIp recombinase-mediated insertion of the pSecTag-FRT/V5-His vector containing a cDNA encoding amino acids 181-787 of human Smo fused to the murine lgk leader sequence to produce a cell surface expressed Smo 181-781 protein. Hygromycin-resistant clones were obtained and stained for LacZ expression (no expression indicates a correct knock-in of my fusion cDNA). LacZ-negative cells were analyzed for binding tritiated Smo antagonist PF-03451358. For membrane preparation, the HEK293 cells expressing Smo 181-781 were grown to 90% confluence in nine to fifteen 245 mm×245 mm×22 mm dishes, washed with Dulbecco's PBS (15 ml per dish) and harvested via scraping in 10 ml of DPBS. The cells were collected and centrifuged at 1500 rpm (400×g) for 10 min at 4° C. The cell pellets were re-suspended in 40 ml of cold DPBS and washed by centrifugation at 2300 rpm (950×g max) for 10 minutes at 4° C. The supernatant was aspirated and the cell pellet was snap frozen in a methanol/dry ice bath and stored at −70° C. For membrane preparation, 15 ml of Membrane Preparation Buffer (50 mM Tris-HCl pH 7.5, 250 mM sucrose with Roche complete protease cocktail tablets) is added to the tube containing the cell pellet, then cells are rapidly thawed, and homogenized using an Ultra-Turrax T8 (IKA Labortechnik) set on “6” for 15 seconds for 5-6 times in icy water bath. This homogenate was diluted up to 50 ml using Membrane Preparation Buffer and centrifuged at 35,000 rpm in a Beckman Ti45 rotor (140,000×g) for 35 minutes at 4° C. followed by aspiration of the supernatant and re-suspension of the pellet in 5 ml of Assay Buffer (50 mM Tris-HCl pH 7.5, 100 mM NaCl, 25 mM MgCl2, 1 mM EDTA, and 0.1% protease free bovine serum albumin). The re-suspended pellet is then homogenized in a glass tissue grinder. The re-suspended membranes are aliquoted (0.5 ml aliquots), snap frozen and stored at −70° C. Total protein in the membrane preparation is determined using the Pierce BCA protein assay (Pierce Chemical).
For the binding competition assay, 100 μl of Assay Buffer is added to all the wells of a 96 well GF/B filter plate (Millipore MultiScreen-HTS-FB cat# MSFBN6B50) for 10 minutes to pre-wet the filter prior to evacuation of the buffer (8 inches Hg for 8 seconds). To the pre-wet wells is added: 20 μl of Assay Buffer, 10 μl diluted test agent, 20 μl of ^3H-PF-3451358 (15 nM stock solution), and 50 μl of membrane preparation (40 μg total protein per well). The plates are sealed and mixed at room temperature for 5 min, incubated at room temperature for 2 hours, then washed 5 times with 100 μl/each of wash buffer and vacuum dried for 8 seconds at 8 inch Hg. The plate is then dried for one hour in a 60° C. oven prior to the addition of 45 μl of Microscint 20 (Packard, #6013621) to each well and incubation at RT for 30 minutes to 1 hour. The plate is counted in a TopCount scintillation counter (Perkin Elmer).
Data analysis uses Excel for % Inhibition and Graphpad Prism for IC50 calculation. Total binding (TB, in the absence of inhibitors)=average of ^3H PF-03451358 3 nM+SMO membrane (40 μg/wells (approx 5000-7000 CPM). Non-specific binding (NSB)=average of ^3H PF-03451358 (3 nM)+cold PF-03451358 (30 μM)+SMO membrane (approx 600-1200 CPM). Specific binding (SB)=(total binding−non-specific binding). % Inhibition=[1−(compound Specific binding/control Specific binding)]×100%. IC50 is calculated by fitting the data to the four parameter sigmoidal dose-response curve (variable slope) Y=Bottom+(Top-Bottom)/(1+10̂((LogEC50−X)*HillSlope)). X is the logarithm of the inhibitor concentration. Y is the response; Y starts at Bottom and goes to Top with a sigmoid shape.

Cn1c(-c2cc(N3CCOCC(O)C3)ncc2Cl)nc2ccccc21 (stereo not drawn) [Example A-53, 4-[5-chloro-4-(1-methyl-1H-benzimidazol-2-yl)pyridin-2-yl]-1,4-oxazepan-6-yl]
IC50 (Gli-Luc/MEF cells (Smo)): 9 nM
inhibition at 0.05 µM [1]: 98%
IC50 [1]: 12 nM

CC(=O)NCC1CCCN(c2cc(-c3nc4ccccc4n3C)c(Cl)cn2)C1 (stereo not drawn) [Example A-62, N-({1-[5-chloro-4-(1-methyl-1H-benzimidazol-2-yl)pyridin-2-yl]piperidin-3-yl}methyl)acetamide]
IC50 (Gli-Luc/MEF cells (Smo)): 21 nM
inhibition at 0.05 µM [1]: 95%
IC50 [1]: 24 nM

COC(=O)NC1CCN(c2cc(-c3nc4ccccc4n3C)ccn2)CC1 [Example A-19, methyl {1-[4-(1-methyl-1H-benzimidazol-2-yl)pyridin-2-yl]piperidin-4-yl}carbamate]
IC50 (Gli-Luc/MEF cells (Smo)): 15 nM
inhibition at 0.05 µM [1]: 84%
IC50 [1]: 25 nM

Cn1c(-c2cc(N3CCC(NS(C)(=O)=O)CC3)ncc2F)nc2ccccc21 [Example D-11, N-{1-[5-fluoro-4-(1-melhyl-1H-benzimidazol-2-yl)pyridin-2-yl]piperidin-4-yl}methanesulfonamide]
IC50 (Gli-Luc/MEF cells (Smo)): 4.2 nM
inhibition at 0.05 µM [1]: 98%
IC50 [1]: 6 nM

CN1CC2(CCN(c3cc(-c4nc5ccccc5n4C)c(Cl)cn3)CC2)CC1=O [Example A-77, 8-[5-chloro-4-(1-methyl-1H-benzimidazol-2-yl)pyridin-2-yl]-2-methyl-2,8-diazaspiro[4.5]decan-3-one]
IC50 (Gli-Luc/MEF cells (Smo)): 15 nM
inhibition at 0.05 µM [1]: 92%
IC50 [1]: 29 nM

Cn1c(-c2cc(N3CCC(O)(CN4CCCC4=O)CC3)ncc2Cl)nc2ccccc21 [Example A-118, 1-({1-[5-chloro-4-(1-methyl-1H-benzimidazol-2-yl)pyridin-2-yl]-4-hydroxypiperidin-4-yl}methyl)pyrrolidin-2-one]
IC50 (Gli-Luc/MEF cells (Smo)): 110 nM
inhibition at 0.05 µM [1]: 65%

Cn1c(-c2cc(N3CCC(CO)C3)ncc2Cl)nc2ccccc21 (stereo not drawn) [Example A-102, {1-[5-chloro-4-(1-methyl-1H-benzimidazol-2-yl)pyridin-2-yl]pyrrolidin-3-yl}methanol]
IC50 (Gli-Luc/MEF cells (Smo)): 40 nM
inhibition at 0.05 µM [1]: 80%
IC50 [1]: 91 nM

Cn1c(-c2cc(N3CCC(C#N)CC3)ncc2Cl)nc2ccccc21 [Example A-75, 1-[5-chloro-4-(1-methyl-1H-benzimidazol-2-yl)pyridin-2-yl]piperidine-4-carbonitrile]
IC50 (Gli-Luc/MEF cells (Smo)): 11 nM
inhibition at 0.05 µM [1]: 92%
IC50 [1]: 23 nM

Cn1c(-c2cc(N3CCC4(CCCC(=O)N4)CC3)ncc2Cl)nc2ccccc21 [Example A-57, 9-[5-chloro-4-(1-methyl-1H-benzimidazol-2-yl)pyridin-2-yl]-1,9-diazaspiro[5.5]undecan-2-one]
IC50 (Gli-Luc/MEF cells (Smo)): 7 nM
inhibition at 0.05 µM [1]: 97%
IC50 [1]: 20 nM

Cn1c(-c2cc(N3[C@@H]4CC[C@H]3CNC4)ncc2Cl)nc2ccccc21 [Example A-194, 2-{5-chloro-2-[(1R,5S)-3,8-diazabicyclo[3.2.1]oct-8-yl]pyridin-4-yl}-1-methyl-1H-benzimidazole]
IC50 (Gli-Luc/MEF cells (Smo)): 3.7 nM
inhibition at 0.05 µM [1]: 111%
IC50 [1]: 13 nM

COCC(=O)N1CCN(c2cc(-c3nc4ccccc4n3C)c(Cl)cn2)CC1 [Example A-201, 2-{5-chloro-2-[4-(methoxyacetyl)piperazin-1-yl]pyridin-4-yl}-1-methyl-1H-benzimidazole]
IC50 (Gli-Luc/MEF cells (Smo)): 8.8 nM
inhibition at 0.05 µM [1]: 96%
IC50 [1]: 14 nM

CNC(=O)N1CCN(c2nccc(-c3nc4ccccc4n3C)n2)CC1 [Example C-8, N-Methyl-4-[4-(1-methyl-1H-benzimidazol-2-yl)pyrimidin-2-yl]piperazine-1-carboxamide]
IC50 (Gli-Luc/MEF cells (Smo)): 408 nM
inhibition at 0.05 µM [1]: 54%
IC50 [1]: 538 nM

CNC(=O)NC1CCN(c2cc(-c3nc4ccccc4n3C)c(F)cn2)CC1 [Example D-13, 1-{1-[5-fluoro-4-(1-methyl-1H-benzimidazol-2-yl)pyridin-2-yl]piperidin-4-yl}-3-methylurea]
IC50 (Gli-Luc/MEF cells (Smo)): 13.4 nM
inhibition at 0.05 µM [1]: 97%
IC50 [1]: 23 nM

CC(=O)NC1CN(c2cc(-c3nc4ccccc4n3C)c(Cl)cn2)C1 [Example A-43, N-{1-[5-chloro-4-(1-methyl-1H-benzimidazol-2-yl)pyridin-2-yl]azetidin-3-yl}acetamide]
IC50 (Gli-Luc/MEF cells (Smo)): 92 nM
inhibition at 0.05 µM [1]: 86%
IC50 [1]: 190 nM

Cn1c(-c2cc(N3CCOCC(N4CCC(O)CC4)C3)ncc2Cl)nc2ccccc21 (stereo not drawn) [Example A-115, 1-{4-[5-chloro-4-(1-methyl-1H-benzimidazol-2-yl)pyridin-2-yl]-1,4-oxazepan-6-yl}piperidin-4-ol]
IC50 (Gli-Luc/MEF cells (Smo)): 221 nM
inhibition at 0.05 µM [1]: 69%

Cn1c(-c2cc(N3CCC(CO)(CCO)C3)ncc2Cl)nc2ccccc21 (stereo not drawn) [Example A-85, 2-{1-[5-chloro-4-(1-methyl-1H-benzimidazol-2-yl)pyridin-2-yl]-3-(hydroxymethyl)pyrrolidin-3-yl}ethanol]
IC50 (Gli-Luc/MEF cells (Smo)): 7 nM
inhibition at 0.05 µM [1]: 90%
IC50 [1]: 17 nM

Cn1c(-c2cc(N3C[C@@H]4[C@H](C3)[C@H]4NS(C)(=O)=O)ncc2Cl)nc2ccccc21 [Example A-8, N-{(1R,5S,6S)-3-[5-chloro-4-(1-methyl-1H-benzimidazol-2-yl)pyridin-2-yl]-3-azabicyclo[3.1.0]hex-6-yl}methanesulfonamide]
IC50 (Gli-Luc/MEF cells (Smo)): 15 nM
inhibition at 0.05 µM [1]: 94%
IC50 [1]: 64 nM

Cn1c(-c2cc(N3C[C@@H](O)[C@H](O)C3)ncc2Cl)nc2ccccc21 [Example A-127, (3R,4R)-1-[5-chloro-4-(1-methyl-1H-benzimidazol-2-yl)pyridin-2-yl]pyrrolidine-3,4-diol]
IC50 (Gli-Luc/MEF cells (Smo)): 128 nM
inhibition at 0.05 µM [1]: 57%

CNC(=O)N1CCN(c2ncc(Cl)c(-c3nc4ccccc4n3C)n2)CC1 [Example C-7, 4-[5-Chloro-4-(1-methyl-1H-benzimidazol-2-yl)pyrimidin-2-yl]-N-methylpiperazine-1-carboxamide]
IC50 (Gli-Luc/MEF cells (Smo)): 18 nM
inhibition at 0.05 µM [1]: 95%
IC50 [1]: 14 nM

CC(=O)N1CCN(c2cc(-c3nc4ccccc4n3C)c(Cl)cn2)[C@@H](C)C1 [Example A-199, 2-{2-[(2S)-4-acetyl-2-methylpiperazin-1-yl]-5-chloropyridin-4-yl}-1-methyl-1H-benzimidazole]
IC50 (Gli-Luc/MEF cells (Smo)): 7.2 nM
inhibition at 0.05 µM [1]: 100%
IC50 [1]: 9 nM
